Assay results: patent US9540348B2, “Imidazole-1-yl pyrimidine derivatives, or pharmacutically acceptable salt thereof, and pharmaceutic composition comprising the same as an active ingredient” (Industry-University Cooperation Foundation Hanyang …, priority 2015, dated 2017)
“Also recorded” adds a separate entry of the source.

Legend:
[1] = target: T1, BRAF (V600E) (Homo sapiens, UniProt P15056, V600E); assay: Enzymatic activity (IC50) to kinases; type: biochemical; conditions: read-out: IC50 (Unit: nM) BRAF (V600E)
T1 sequence (P15056 whole entry V600E): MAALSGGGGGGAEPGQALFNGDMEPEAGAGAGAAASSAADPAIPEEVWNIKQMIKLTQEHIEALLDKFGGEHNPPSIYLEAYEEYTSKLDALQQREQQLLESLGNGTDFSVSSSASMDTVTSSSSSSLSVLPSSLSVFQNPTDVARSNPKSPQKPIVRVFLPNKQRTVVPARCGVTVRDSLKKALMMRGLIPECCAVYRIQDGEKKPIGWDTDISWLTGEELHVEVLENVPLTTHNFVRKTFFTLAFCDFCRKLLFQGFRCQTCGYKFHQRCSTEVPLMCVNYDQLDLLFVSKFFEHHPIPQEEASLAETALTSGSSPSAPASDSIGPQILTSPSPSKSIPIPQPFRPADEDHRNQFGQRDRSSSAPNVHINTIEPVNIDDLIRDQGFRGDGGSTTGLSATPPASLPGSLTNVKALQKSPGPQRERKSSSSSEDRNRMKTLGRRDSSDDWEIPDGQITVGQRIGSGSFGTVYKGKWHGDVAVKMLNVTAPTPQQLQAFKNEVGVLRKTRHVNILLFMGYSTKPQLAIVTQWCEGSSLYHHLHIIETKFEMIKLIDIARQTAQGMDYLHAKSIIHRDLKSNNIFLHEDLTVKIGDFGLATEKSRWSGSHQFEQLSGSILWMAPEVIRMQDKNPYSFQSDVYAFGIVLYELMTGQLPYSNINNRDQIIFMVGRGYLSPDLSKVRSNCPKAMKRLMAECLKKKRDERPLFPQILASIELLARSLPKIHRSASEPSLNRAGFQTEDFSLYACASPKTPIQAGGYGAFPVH

[2] = target: P38a/MAPK14 (Homo sapiens, UniProt Q16539); assay: Enzymatic activity (IC50) to kinases; type: biochemical; conditions: read-out: IC50 (Unit: nM) P38a/MAPK14
[3] = test system: A375P human melanoma cell line; assay: Antiproliferative activity to A375P human melanoma cell line; type: cell-based
Description: The antiproliferative activity of the compounds of Examples to A375P human melanoma cell line and U937 human leukemic monocyte lymphoma cell line are evaluated and listed in the following Table 1.

[4] = test system: most other kinases except cKit (KIT) and p38a (MAPK14); assay: Kinase panel screening, summary for the other kinases; type: biochemical; conditions: 10 μM concentration
Description: (§1) To Compound 10c of Example 23, kinase panel screening was carried out to 32 kinds of kinases in 10 μM concentration and the results are listed in the following Table 2.

[5] = target: wild-type BRAF (Homo sapiens, UniProt P15056); assay: Enzymatic activity (IC50) to kinases; type: biochemical; conditions: read-out: IC50 (Unit: nM) BRAF
wild-type BRAF, sequence (P15056 whole entry): as the sequence (P15056 whole entry V600E) above, with E600V counted along it

[6] = target: Aurora A (Homo sapiens, UniProt O14965); assay: Kinase panel screening; type: biochemical; conditions: 10 μM concentration; read-out: Inhibition Rate (Unit: %) Aurora A
Aurora A, sequence (O14965 whole entry): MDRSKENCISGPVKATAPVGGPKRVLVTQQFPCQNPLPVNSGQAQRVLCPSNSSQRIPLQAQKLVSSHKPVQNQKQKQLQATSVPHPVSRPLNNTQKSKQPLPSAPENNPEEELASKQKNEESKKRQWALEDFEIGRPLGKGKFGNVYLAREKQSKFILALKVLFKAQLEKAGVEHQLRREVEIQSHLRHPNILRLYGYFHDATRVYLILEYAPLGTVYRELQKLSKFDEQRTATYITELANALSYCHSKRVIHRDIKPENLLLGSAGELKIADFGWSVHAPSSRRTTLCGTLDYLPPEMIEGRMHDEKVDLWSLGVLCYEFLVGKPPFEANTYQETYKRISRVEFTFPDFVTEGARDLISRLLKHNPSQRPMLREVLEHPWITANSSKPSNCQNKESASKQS
Description: as §1

[7] = target: LCK (Homo sapiens, UniProt P06239); assay: Kinase panel screening; type: biochemical; conditions: 10 μM concentration; read-out: Inhibition Rate (Unit: %) LCK
LCK, sequence (P06239 whole entry, species assumed): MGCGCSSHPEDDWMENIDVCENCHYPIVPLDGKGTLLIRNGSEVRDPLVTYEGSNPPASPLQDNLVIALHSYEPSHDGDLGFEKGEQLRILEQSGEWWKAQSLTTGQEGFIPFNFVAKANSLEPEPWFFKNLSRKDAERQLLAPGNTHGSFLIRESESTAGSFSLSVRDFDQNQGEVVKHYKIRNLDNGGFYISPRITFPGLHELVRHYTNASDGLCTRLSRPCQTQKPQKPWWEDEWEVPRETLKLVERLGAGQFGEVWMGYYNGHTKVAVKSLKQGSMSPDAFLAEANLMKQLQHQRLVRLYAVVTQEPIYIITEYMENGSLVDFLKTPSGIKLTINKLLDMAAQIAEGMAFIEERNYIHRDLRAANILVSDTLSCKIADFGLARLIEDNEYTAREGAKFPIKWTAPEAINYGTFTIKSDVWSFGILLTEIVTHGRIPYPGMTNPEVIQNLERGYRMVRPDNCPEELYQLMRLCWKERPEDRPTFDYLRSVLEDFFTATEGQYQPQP
Description: as §1

[8] = target: FLT3 (Homo sapiens, UniProt P36888); assay: Kinase panel screening; type: biochemical; conditions: 10 μM concentration; read-out: Inhibition Rate (Unit: %) FLT3
Description: as §1

[9] = target: RAF1 (Homo sapiens, UniProt P04049); assay: Kinase panel screening; type: biochemical; conditions: 10 μM concentration
RAF1, sequence (P04049 whole entry): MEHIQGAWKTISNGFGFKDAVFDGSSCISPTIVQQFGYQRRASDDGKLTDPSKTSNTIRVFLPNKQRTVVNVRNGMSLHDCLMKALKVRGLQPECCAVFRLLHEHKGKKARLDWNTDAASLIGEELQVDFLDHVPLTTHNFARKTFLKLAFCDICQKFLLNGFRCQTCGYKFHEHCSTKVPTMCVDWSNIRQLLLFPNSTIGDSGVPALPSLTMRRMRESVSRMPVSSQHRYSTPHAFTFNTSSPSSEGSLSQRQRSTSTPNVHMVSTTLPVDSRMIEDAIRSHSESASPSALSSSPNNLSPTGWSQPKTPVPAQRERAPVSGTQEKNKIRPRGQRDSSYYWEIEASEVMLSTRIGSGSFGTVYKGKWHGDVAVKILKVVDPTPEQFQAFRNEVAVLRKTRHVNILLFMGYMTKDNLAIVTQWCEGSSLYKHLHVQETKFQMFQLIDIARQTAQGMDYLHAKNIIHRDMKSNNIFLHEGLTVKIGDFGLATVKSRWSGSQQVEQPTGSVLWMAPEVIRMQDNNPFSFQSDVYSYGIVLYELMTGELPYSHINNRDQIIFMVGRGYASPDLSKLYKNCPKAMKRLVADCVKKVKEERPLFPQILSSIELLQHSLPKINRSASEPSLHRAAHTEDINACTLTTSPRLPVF
Description: as §1

[10] = target: RON/MST1R (Homo sapiens, UniProt Q04912); assay: Kinase panel screening; type: biochemical; conditions: 10 μM concentration; read-out: Inhibition Rate (Unit: %) RON/MST1R
Description: as §1

[11] = target: T1, BRAF (V600E); assay: Kinase panel screening; type: biochemical; conditions: 10 μM concentration
Description: as §1

[12] = target: mTOR/FRAP1 (Homo sapiens, UniProt P42345); assay: Kinase panel screening; type: biochemical; conditions: 10 μM concentration; read-out: Inhibition Rate (Unit: %) mTOR/FRAP1
Description: as §1

[13] = target: c-Kit (Homo sapiens, UniProt P10721); assay: Kinase panel screening; type: biochemical; conditions: 10 μM concentration; read-out: Inhibition Rate (Unit: %) c-Kit
Description: as §1

[14] = target: ABL1 (Homo sapiens, UniProt P00519); assay: Kinase panel screening; type: biochemical; conditions: 10 μM concentration; read-out: Inhibition Rate (Unit: %) ABL1
Description: as §1

[15] = target: c-MET (Homo sapiens, UniProt P08581); assay: Kinase panel screening; type: biochemical; conditions: 10 μM concentration; read-out: Inhibition Rate (Unit: %) c-MET
Description: as §1

[16] = target: GSK3b (Homo sapiens, UniProt P49841); assay: Kinase panel screening; type: biochemical; conditions: 10 μM concentration; read-out: Inhibition Rate (Unit: %) GSK3b
Description: as §1

[17] = target: FMS (Homo sapiens, UniProt P07333); assay: Kinase panel screening; type: biochemical; conditions: 10 μM concentration; read-out: Inhibition Rate (Unit: %) FMS
Description: as §1

[18] = target: EGFR (Homo sapiens, UniProt P00533); assay: Kinase panel screening; type: biochemical; conditions: 10 μM concentration; read-out: Inhibition Rate (Unit: %) EGFR
Description: as §1

[19] = target: BRAF (Homo sapiens, UniProt P15056); assay: Kinase panel screening; type: biochemical; conditions: 10 μM concentration
BRAF, sequence (P15056 whole entry): as the sequence (P15056 whole entry V600E) above, with E600V counted along it
Description: as §1

[20] = test system: PKA; assay: Kinase panel screening; type: biochemical; conditions: 10 μM concentration
Description: as §1

[21] = target: PLK1 (Homo sapiens, UniProt P53350); assay: Kinase panel screening; type: biochemical; conditions: 10 μM concentration; read-out: Inhibition Rate (Unit: %) PLK1
PLK1, sequence (P53350 whole entry, species assumed): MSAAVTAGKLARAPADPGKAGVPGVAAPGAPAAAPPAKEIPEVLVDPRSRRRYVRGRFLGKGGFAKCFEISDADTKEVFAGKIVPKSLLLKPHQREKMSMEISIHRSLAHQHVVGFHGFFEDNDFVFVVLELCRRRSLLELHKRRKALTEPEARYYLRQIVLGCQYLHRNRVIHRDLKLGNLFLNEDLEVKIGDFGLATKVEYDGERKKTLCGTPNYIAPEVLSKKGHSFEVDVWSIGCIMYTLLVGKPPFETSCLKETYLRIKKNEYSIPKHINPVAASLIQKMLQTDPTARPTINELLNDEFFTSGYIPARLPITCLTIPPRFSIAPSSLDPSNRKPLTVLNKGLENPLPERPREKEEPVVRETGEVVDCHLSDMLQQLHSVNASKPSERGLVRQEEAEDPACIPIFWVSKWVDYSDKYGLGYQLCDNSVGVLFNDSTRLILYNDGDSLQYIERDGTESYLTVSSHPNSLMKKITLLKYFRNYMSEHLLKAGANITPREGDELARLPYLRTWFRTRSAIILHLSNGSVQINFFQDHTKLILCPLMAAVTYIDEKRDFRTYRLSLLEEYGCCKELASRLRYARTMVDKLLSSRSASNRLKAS
Description: as §1

[22] = target: SYK (Homo sapiens, UniProt P43405); assay: Kinase panel screening; type: biochemical; conditions: 10 μM concentration; read-out: Inhibition Rate (Unit: %) SYK
Description: as §1

[23] = target: c-Src (Homo sapiens, UniProt P12931); assay: Kinase panel screening; type: biochemical; conditions: 10 μM concentration; read-out: Inhibition Rate (Unit: %) c-Src
c-Src, sequence (P12931 whole entry, species assumed): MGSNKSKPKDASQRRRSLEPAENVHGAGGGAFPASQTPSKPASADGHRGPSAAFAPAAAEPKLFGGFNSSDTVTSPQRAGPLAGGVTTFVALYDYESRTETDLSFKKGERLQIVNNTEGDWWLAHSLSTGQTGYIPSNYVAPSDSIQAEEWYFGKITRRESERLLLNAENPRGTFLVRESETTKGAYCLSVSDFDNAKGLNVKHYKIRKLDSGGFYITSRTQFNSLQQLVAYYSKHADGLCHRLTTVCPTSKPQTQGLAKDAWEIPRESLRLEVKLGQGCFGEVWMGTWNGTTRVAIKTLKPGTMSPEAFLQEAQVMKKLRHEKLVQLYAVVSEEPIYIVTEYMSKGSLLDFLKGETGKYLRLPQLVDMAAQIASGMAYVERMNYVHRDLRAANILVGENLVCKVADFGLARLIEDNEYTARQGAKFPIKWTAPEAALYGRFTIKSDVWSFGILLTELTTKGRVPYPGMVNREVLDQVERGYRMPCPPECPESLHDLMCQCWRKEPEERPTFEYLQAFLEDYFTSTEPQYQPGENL
Description: as §1

[24] = target: MEK1 (Homo sapiens, UniProt Q02750); assay: Kinase panel screening; type: biochemical; conditions: 10 μM concentration; read-out: Inhibition Rate (Unit: %) MEK1
Description: as §1

[25] = target: AKT1 (Homo sapiens, UniProt P31749); assay: Kinase panel screening; type: biochemical; conditions: 10 μM concentration; read-out: Inhibition Rate (Unit: %) AKT1
Description: as §1

[26] = target: CDK1/cyclin B (Homo sapiens, UniProt P06493); assay: Kinase panel screening; type: biochemical; conditions: 10 μM concentration; read-out: Inhibition Rate (Unit: %) CDK1/cyclin B
Description: as §1

[27] = target: BTK (Homo sapiens, UniProt Q06187); assay: Kinase panel screening; type: biochemical; conditions: 10 μM concentration; read-out: Inhibition Rate (Unit: %) BTK
BTK, sequence (Q06187 whole entry, species assumed): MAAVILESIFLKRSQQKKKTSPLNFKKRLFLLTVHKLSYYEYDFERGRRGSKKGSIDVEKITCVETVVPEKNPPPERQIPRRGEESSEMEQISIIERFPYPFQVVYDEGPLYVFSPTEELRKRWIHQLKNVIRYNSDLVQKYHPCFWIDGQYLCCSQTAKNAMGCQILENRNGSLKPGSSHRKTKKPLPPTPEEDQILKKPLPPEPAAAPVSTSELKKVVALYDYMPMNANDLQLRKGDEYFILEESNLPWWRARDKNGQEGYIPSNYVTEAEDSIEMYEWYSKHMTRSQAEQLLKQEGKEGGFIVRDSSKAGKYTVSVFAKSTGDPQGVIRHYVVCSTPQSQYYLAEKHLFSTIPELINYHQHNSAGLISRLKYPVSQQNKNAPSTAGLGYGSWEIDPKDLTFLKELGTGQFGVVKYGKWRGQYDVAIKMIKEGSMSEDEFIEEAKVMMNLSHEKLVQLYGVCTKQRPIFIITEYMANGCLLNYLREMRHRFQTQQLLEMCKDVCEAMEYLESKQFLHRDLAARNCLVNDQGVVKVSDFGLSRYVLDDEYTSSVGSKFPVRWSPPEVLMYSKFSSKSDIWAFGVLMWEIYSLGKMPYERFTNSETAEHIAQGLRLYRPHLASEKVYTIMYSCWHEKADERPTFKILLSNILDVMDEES
Description: as §1

[28] = target: FGFR3 (Homo sapiens, UniProt P22607); assay: Kinase panel screening; type: biochemical; conditions: 10 μM concentration; read-out: Inhibition Rate (Unit: %) FGFR3
Description: as §1

[29] = target: IGF1R (Homo sapiens, UniProt P08069); assay: Kinase panel screening; type: biochemical; conditions: 10 μM concentration; read-out: Inhibition Rate (Unit: %) IGF1R
Description: as §1

[30] = target: cRAF1 (Homo sapiens, UniProt P04049); assay: Enzymatic activity (IC50) to kinases; type: biochemical; conditions: read-out: IC50 (Unit: nM) cRAF1
cRAF1, sequence (P04049 whole entry): as the sequence (P04049 whole entry) above

IC50 [1]: 38.3 nM
IC50 [2]: 571 nM
GI50 ([3]; A375P human melanoma cell line, read-out: A375P (GI50, Unit: μM)): 1.82 µM
inhibition rate to most other kinases [4]: less than 30%
IC50 [5]: 186 nM
inhibition at 10 µM [6]: 17.6%
inhibition at 10 µM [7]: 5.8%
inhibition at 10 µM [8]: 68.4%
Inhibition Rate (Unit: %) RAF1 ([9]; 10 µM): 98.7%
inhibition at 10 µM ([9]; read-out: Inhibition Rate (Unit: %) RAF1): 99%
inhibition at 10 µM [10]: 0.42%
Inhibition Rate (Unit: %) BRAF (V600E) ([11]; 10 µM): 96.1%
inhibition at 10 µM ([11]; read-out: Inhibition Rate (Unit: %) BRAF (V600E)): 99%
inhibition at 10 µM [12]: 0%
inhibition at 10 µM [13]: 63.8%
inhibition at 10 µM [14]: 6.9%
inhibition at 10 µM [15]: 17.6%
inhibition at 10 µM [16]: 34.5%
inhibition at 10 µM [17]: 33.6%
inhibition at 10 µM [18]: 0%
Inhibition Rate (Unit: %) BRAF ([19]; 10 µM): 99.9%
inhibition at 10 µM ([19]; read-out: Inhibition Rate (Unit: %) BRAF): 99%
Inhibition Rate (Unit: %) PKA [20]: 0%
inhibition at 10 µM [21]: 9.9%
inhibition at 10 µM [22]: 0%
inhibition at 10 µM [23]: 2.1%
inhibition at 10 µM [24]: 0%
inhibition at 10 µM [25]: 12.9%
inhibition at 10 µM [26]: 34.8%
inhibition at 10 µM [27]: 0%
inhibition at 10 µM [28]: 3.5%
inhibition at 10 µM [29]: 0%
IC50 [30]: 8.79 nM
Structure (SMILES): C[C@H](O)CNc1nccc(-n2ccnc2Cc2cccc(NC(=O)Nc3ccc(C(F)(F)F)c(Cl)c3)c2)n1 [Example 23, (S)-1-(3-chloro-4-(trifluoromethyl)phenyl)-3-(3-((1-(2-((2-hydroxypropyl)amino)pyrimidin-4-yl)-1H-imidazol-2-yl)methyl)phenyl)urea]
potency against A375P, in words ([3]; A375P cell line, comparison with Sorafenib): large potencies; also recorded: better potencies than Sorafenib
